According to patent US5192756A, “Aminosterol antibiotic” (The Children's Hospital of Pennsylvania, priority 1992, dated 1993):
Converted amounts (≈) assume the structure as drawn. No end group written: not given here.

Legend:
[1] = test system: Candida albicans; assay: Minimal inhibitory concentration, Candida albicans; assay type: cell-based; settings: for MIC: ATCC14053; for MIC / Minimal Inhibitory Concentration: Candida albicans ATCC 14053, 1/2×TSB, 37° C., 18 to 24 hours
Protocol: (§1) Squalamine was assayed in vitro against several microbial organisms to evaluate its spectrum of activity.
(§2) Minimal inhibitory concentrations for the bacteria and yeast were determined by incubating 0.9-11×10^5 colony-forming units/ml of log-phase organisms in 1/2×tryptica soy broth (TSB) with increasing concentrations of sample in static 96-2311 microtiter plates (Corning, Inc., Corning, N.Y.) at 37° C. for 18 to 24 hours. The minimal inhibitory concentration is the concentration of sample at which no growth was observed. Control incubation in the absence of […] served to set a baseline value.
(§3) Initial sample concentrations were 2 mg/ml in 250 mM sodium acetate pH 6.6, 11.2 mM HCl, except taurolithocholic acid 3-sulfate which was 2 mg/ml in 50 mM sodium acetate, and squalamine to which HCl was not added because it was acidic following the last step of purification. Spermidine HCl, taurolithocholic acid 3-sulfate, melittin, holothurin and ampicillin were purchased from Sigma (St. Louis, Miss.). CHAPS (3-[(3-cholamidopropyl)dimethylammonio]-1-propane sulfonate dihydrate) was purchased from Aldrich (Milwaukee, Wis.). Conessine was purchased from Aldrich Rare Chemicals Division (Milwaukee, Wis.). Magainin-II amide and CPF-amide were made by Magainin Pharmaceuticals, Inc. (Plymouth Meeting, Penn.). The CPF peptide used in the assay has the sequence […]-NH2. (Richter, K., et al., J. Biol. Chem. 261, 3676-3680 (1986).

[2] = test system: Pseudomonas aeruginosa; assay: Minimal inhibitory concentration, Pseudomonas aeruginosa; assay type: cell-based; settings: Pseudomonas aeruginosa ATCC 27853, 1/2×TSB, 37° C., 18 to 24 hours; for MIC: ATCC27853
Protocol: as §1, §2, §3

[3] = test system: Paramecium caudatum; assay: Minimal disruptive concentration, Paramecium caudatum; assay type: cell-based; settings: for MIC / Minimal Inhibitory Concentration (minimal disruptive concentration for the protozoa): 1% trypticase soy broth, light microscopy for ten minutes; for MIC: read-out: Minimal Inhibitory Concentration (minimal disruptive concentration for the protozoa)
Protocol: as §1, §3
(§4) Minimal disruptive concentration (the concentration at which physical disruption of the protozoa occurred) was determined for the protozoa by adding […] of sample (in sodium acetate as above) to […] of 1% trypticase soy broth containing P. caudatum (Nasco, Fort Atkinson, Wiss,). Organisms were observed by light microscopy for ten minutes.

[4] = test system: Serratia marcescens; assay: Minimal inhibitory concentration, Serratia marcescens; assay type: cell-based; settings: Serratia marcescens ATCC 8100, 1/2×TSB, 37° C., 18 to 24 hours; for MIC: ATCC8100
Protocol: as §1, §2, §3

[5] = test system: Staph. aureus; assay: Minimal inhibitory concentration, Staph. aureus; assay type: cell-based; settings: Staph. aureus ATCC 29213, 1/2×TSB, 37° C., 18 to 24 hours; for MIC: Staphylococcus aureus, ATCC29213
Protocol: as §1, §2, §3

[6] = test system: E. coli; assay: Minimal inhibitory concentration, E. coli; assay type: cell-based; settings: E. coli ATCC 25922, 1/2×TSB, 37° C., 18 to 24 hours; for MIC: Escherichia coli, ATCC25922
Protocol: as §1, §2, §3

[7] = test system: Proteus vulgaris; assay: Minimal inhibitory concentration, Proteus vulgaris; assay type: cell-based; settings: Proteus vulgaris ATCC 13315, 1/2×TSB, 37° C., 18 to 24 hours; for MIC: ATCC13315
Protocol: as §1, §2, §3

[8] = Hemolytic activity against human erythrocytes; assay type: cell-based; settings: human; 92 μg/ml; 10% erythrocytes in PBS, 37° C., ten minutes; Triton X-100 = 100%
Protocol: (§5) Because of its structural resemblance to steroidal detergents, squalamine was assayed for its hemolytic activity against human erythrocytes.
(§6) Each sample was diluted in H2 O and was added to a 10% (vol/vol) suspension of human erythrocytes in phosphate buffered saline (PBS). Erythrocytes were collected with heparin and washed once in 1×PBS before the assay. Samples were incubated at 37° C. for ten minutes, centrifuged at 12,000× g for one minute, and the OD350 of the supernatant was measured. Addition of Triton X-100 (final concentration 0.1%) defined 100% hemolysis.

[9] = test system: Strep. faecalis; assay: Minimal inhibitory concentration, Strep. faecalis; assay type: cell-based; settings: Strep. faecalis ATCC 29212, 1/2×TSB, 37° C., 18 to 24 hours; for MIC: Enterococcus faecalis, ATCC29212
Protocol: as §1, §2, §3

[10] = test system: several microbial organisms; assay: In vitro antimicrobial spectrum (bacteria, fungi, protozoa), in words; assay type: cell-based; settings: for antibiotic activity (in words): bacteria, fungi, protozoa, concentration range studied
Protocol: as §1, §2, §3, §4

[11] = test system: human erythrocytes; assay: Hemolytic activity against human erythrocytes; assay type: cell-based
Protocol: as §5, §6

[12] = test system: E. coli D31; assay: Protease resistance of antimicrobial activity (proteinase K); assay type: in vitro ADME; settings: proteinase K 2 mg/ml, one hour, 37° C.; E. coli D31 lawn
Protocol: Proteinase K (final concentration 2 mg/ml) was added to 0.2 μg/μl squalamine or 0.8 μg/μl magainin II amide in 1×phosphate-buffered saline. After a one hour incubation at 37° C., 2 μl of each sample was applied to the lawn of E. coli D31.

Compound | MIC [1] [µg/mL] | MIC [2] [µg/mL] | MIC [3] [µg/mL] | MIC [4] [µg/mL] | MIC [5] [µg/mL] | MIC [6] [µg/mL] | MIC [7] [µg/mL] | hemolysis at 10 min [8] [%] | MIC [9] [µg/mL] | antibiotic activity (in words) [10] | Minimal Inhibitory Concentration [1] [µg/mL] | Minimal Inhibitory Concentration [2] [µg/mL] | Minimal Inhibitory Concentration (minimal disruptive concentration for the protozoa) [3] [µg/mL] | Minimal Inhibitory Concentration [4] [µg/mL] | Minimal Inhibitory Concentration [5] [µg/mL] | Minimal Inhibitory Concentration [6] [µg/mL] | Minimal Inhibitory Concentration [7] [µg/mL] | Minimal Inhibitory Concentration [9] [µg/mL] | other results
CC1(C)S[C@@H]2[C@H](NC(=O)[C@H](N)c3ccccc3)C(=O)N2[C@H]1C(=O)O [Ampicillin, ampicillin] | > 125 | 62 to 125 (≈ 177 to 358 µM) | > 65 | 4 to 62 (≈ 11.4 to 177 µM) | 1 (≈ 2.86 µM) | 2 to 4 (≈ 5.72 to 11.4 µM) | 8 to 16 (≈ 22.9 to 45.8 µM) | < 0.5 | < 0.25 |  |  |  |  |  |  |  |  |  | 
C[C@H](CCC(=O)NCCS(=O)(=O)O)[C@H]1CC[C@H]2[C@@H]3CC[C@@H]4C[C@H](OS(=O)(=O)O)CC[C@]4(C)[C@H]3CC[C@]12C [Taurolithocholic Acid 3-sulfate, taurolithocholic acid 3-sulfate] | > 500 | > 500 | > 260 | > 500 | > 500 | > 500 | > 500 |  | > 500 | inactive as an antibiotic |  |  |  |  |  |  |  |  | 
GFGSFLGKALKAALKIGANALGGSPQQ-NH2 [CPF, caerulein percursor fragment, Xenopus antimicrobial peptide] |  |  |  |  |  |  |  |  |  |  | 62 to 125 | 8 to 31 | 4 to 8 | > 125 | 8 to 16 | 8 to 16 | 62 to 125 | 31 to 62 | hemolysis ([11]; 92 μg/ml, 10% erythrocytes in PBS, 37° C., ten minutes, Triton X-100 = 100%, 10 min): 3%
C[C@H](CCC(=O)NCCC[N+](C)(C)CCCS(=O)(=O)[O-])[C@H]1CC[C@H]2[C@@H]3[C@H](O)C[C@@H]4C[C@H](O)CC[C@]4(C)[C@H]3C[C@H](O)[C@]12C [CHAPS, 3-[(3-cholamidopropyl)dimethylammonio]-1-propane sulfonate dihydrate] | > 500 | > 500 | > 260 | > 500 | > 500 | > 500 | > 500 | < 0.5 | 250 to 500 | inactive as an antibiotic |  |  |  |  |  |  |  |  | 
Magainin II |  |  |  |  |  |  |  |  |  |  | 125 to 250 | 31 to 62 | 33 to 65 | > 250 | > 250 | 31 to 62 | 125 to 250 | > 250 | antimicrobial activity after proteinase K digestion [12]: lost all activity on proteinase K digestion
C[C@H]1[C@H]2CC[C@H]3[C@@H]4CC=C5C[C@@H](N(C)C)CC[C@]5(C)[C@H]4CC[C@]23CN1C [Conessine] | 31 to 62 (≈ 86.9 to 174 µM) | > 500 | 16 to 33 (≈ 44.9 to 92.5 µM) | > 500 | > 500 | > 500 | > 500 | < 0.5 | > 500 |  |  |  |  |  |  |  |  |  | antifungal activity (in words) ([1]; Candida): exhibits antifungal (Candida) and antiprotozoan (Paramecium caudatum) activity; antiprotozoan activity (in words) [3]: exhibits antifungal (Candida) and antiprotozoan (Paramecium caudatum) activity; antibacterial activity (in words) ([10]; bacteria of Table I): lacks antibacterial activity
NCCCCNCCCN [Spermidine] | > 500 | > 500 | > 260 | > 500 | > 500 | > 500 | > 500 | < 0.5 | 250 to 500 (≈ 1720 to 3440 µM) | inactive as an antibiotic |  |  |  |  |  |  |  |  | 
CC[C@H](C)[C@H](NC(=O)CN)C(=O)NCC(=O)N[C@@H](C)C(=O)N[C@H](C(=O)N[C@@H](CC(C)C)C(=O)N[C@@H](CCCCN)C(=O)N[C@H](C(=O)N[C@@H](CC(C)C)C(=O)N[C@H](C(=O)N[C@H](C(=O)NCC(=O)N[C@@H](CC(C)C)C(=O)N1CCC[C@H]1C(=O)N[C@@H](C)C(=O)N[C@@H](CC(C)C)C(=O)N[C@H](C(=O)N[C@@H](CO)C(=O)N[C@@H](Cc1c[nH]c2ccccc12)C(=O)N[C@H](C(=O)N[C@@H](CCCCN)C(=O)N[C@@H](CCCNC(=N)N)C(=O)N[C@@H](CCCCN)C(=O)N[C@@H](CCCNC(=N)N)C(=O)N[C@@H](CCC(N)=O)C(=O)N[C@@H](CCC(N)=O)C(N)=O)[C@@H](C)CC)[C@@H](C)CC)[C@@H](C)O)[C@@H](C)O)C(C)C)C(C)C [Melittin] |  |  |  |  |  |  |  |  |  |  | 16 to 31 | 16 to 31 | 2 to 4 | > 250 | 8 to 16 | 8 to 16 | 16 to 31 | 4 to 16 | antibiotic versus hemolytic concentration / selectivity (in words) ([11]; antibiotic activity compared with erythrocyte disruption): fall within a similar concentration range
